# Patent publication US20160220573A1, “COMBINATION THERAPIES FOR TREATING CANCERS” (Gilead Sciences, Inc., priority 2015, published 2016)
# System: CLL cells
# Experiment: Human CLL Apoptosis Assay
# Type: cell-based
# Details: without HS-5 co-culture
# Protocol: Peripheral blood mononuclear cells (PBMCs) were isolated from primary chronic lymphocytic leukemia (CLL) patients and cultured for 3-5 hours in Lymphocyte Growth Medium (LGM, RPMI 1640, 1 mM Sodium Pyruvate, 10 mM HEPES, pH 7.4, 100 U/mL Penicillin/100 μg/mL Streptomycin, 55 μM β-Mercaptoethanl, 2 mM GlutaMAX, and 10% FBS) at 37° C. with 5% CO2. Cells were then centrifuged at room temperature for 10 minutes and resuspended in an appropriate volume of LGM for plating (maximum cell density=3.12×10^6/ml). Final assay wells were set up in U-bottom 96-well tissue culture plates with HS-5 co-culture (plates were coated with 3×10^4 HS-5 cells in 100 μl overnight at 37° C. prior to the assay) or no co-culture.
# Cell suspensions (80 μL, 2.5×10^5-9.4×10^4) were added to the plate and incubated for 1 hour prior to stimulation with αIgM/αIgG (7.8 μg/well) and αCD40 (4 μg/well). Cells were incubated with compounds for about 66 hours at 37° C. After incubation, the cells were transferred to deeper plates and washed once with 500 μL of 1×PBS^+/+. Cells were resuspended in Invitrogen's aqua Live/Dead reagent according to manufacturer's directions and incubated 30 minutes on ice. Aqua Live/Dead was quenched with an equal volume of PBS^+/+ with 4% FBS (FACS buffer). Cells were centrifuged and labeled with αCD5^−PE, αCD19-BV421 and AnnexinV-APC in a total volume of […] and incubated 30 minutes on ice. After labeling, cells were rinsed twice in FACS buffer and then fixed with BD Fixation buffer for 30 minutes on ice. Cells were rinsed twice with FACS buffer and analyzed.
# For the apoptosis analysis, flow cytometric sampling of 5000-20,000 total events were collected on a BD FACS Canto II instrument using a high throughput screen (HTS) autosampler for analysis of apoptosis. CD5^+/CD19^+ cells were identified and subsequently gated for AnnexinV^+/LiveDead and AnnexinV^+/LiveDead^+ populations.
# Flow cytometric data were extracted to a flow cytometry standard (fcs) file. Average percentages of AnnexinV^+ cells were determined for the positive control and negative wells (no compound). The percentage of AnnexinV^+ cells represented the percentage or levels of apoptosis. Similar results were obtained for CLL cells with HS-5 co-culture.
compound,measurement,setting,value
CC1(C)CCC(CN2CCN(c3ccc(C(=O)NS(=O)(=O)c4ccc(NCC5CCOCC5)c([N+](=O)[O-])c4)c(Oc4cnc5[nH]ccc5c4)c3)CC2)=C(c2ccc(Cl)cc2)C1 [Compound B1],Percentage of the AnnexinV^+ cells from CLL patients,"Sample 1, 0.8 nM Compound B1, 0 nM Compound A1",13%
same,Percentage of the AnnexinV^+ cells from CLL patients,"Sample 1, 1.6 nM Compound B1, 0 nM Compound A1",15%
same,Percentage of the AnnexinV^+ cells from CLL patients,"Sample 1, 3.1 nM Compound B1, 0 nM Compound A1",15%
same,Percentage of the AnnexinV^+ cells from CLL patients,"Sample 1, 6.3 nM Compound B1, 0 nM Compound A1",16%
same,Percentage of the AnnexinV^+ cells from CLL patients,"Sample 1, 12.5 nM Compound B1, 0 nM Compound A1",19%
same,Percentage of the AnnexinV^+ cells from CLL patients,"Sample 1, 25 nM Compound B1, 0 nM Compound A1",24%
same,Percentage of the AnnexinV^+ cells from CLL patients,"Sample 1, 50 nM Compound B1, 0 nM Compound A1",31%
same,Percentage of the AnnexinV^+ cells from CLL patients,"Sample 1, 100 nM Compound B1, 0 nM Compound A1",36%
same,Percentage of the AnnexinV^+ cells from CLL patients,"Sample 1, 200 nM Compound B1, 0 nM Compound A1",46%
same,Percentage of the AnnexinV^+ cells from CLL patients,"Sample 2, 0.8 nM Compound B1, 0 nM Compound A1",10%
same,Percentage of the AnnexinV^+ cells from CLL patients,"Sample 2, 1.6 nM Compound B1, 0 nM Compound A1",18%
same,Percentage of the AnnexinV^+ cells from CLL patients,"Sample 2, 3.1 nM Compound B1, 0 nM Compound A1",35%
same,Percentage of the AnnexinV^+ cells from CLL patients,"Sample 2, 6.3 nM Compound B1, 0 nM Compound A1",55%
same,Percentage of the AnnexinV^+ cells from CLL patients,"Sample 2, 12.5 nM Compound B1, 0 nM Compound A1",76%
same,Percentage of the AnnexinV^+ cells from CLL patients,"Sample 2, 25 nM Compound B1, 0 nM Compound A1",89%
same,Percentage of the AnnexinV^+ cells from CLL patients,"Sample 2, 50 nM Compound B1, 0 nM Compound A1",93%
same,Percentage of the AnnexinV^+ cells from CLL patients,"Sample 2, 100 nM Compound B1, 0 nM Compound A1",95%
same,Percentage of the AnnexinV^+ cells from CLL patients,"Sample 2, 200 nM Compound B1, 0 nM Compound A1",97%
same,Percentage of the AnnexinV^+ cells from CLL patients,"Sample 3, 0.8 nM Compound B1, 0 nM Compound A1",16%
same,Percentage of the AnnexinV^+ cells from CLL patients,"Sample 3, 1.6 nM Compound B1, 0 nM Compound A1",21%
same,Percentage of the AnnexinV^+ cells from CLL patients,"Sample 3, 3.1 nM Compound B1, 0 nM Compound A1",33%
same,Percentage of the AnnexinV^+ cells from CLL patients,"Sample 3, 6.3 nM Compound B1, 0 nM Compound A1",50%
same,Percentage of the AnnexinV^+ cells from CLL patients,"Sample 3, 12.5 nM Compound B1, 0 nM Compound A1",69%
same,Percentage of the AnnexinV^+ cells from CLL patients,"Sample 3, 25 nM Compound B1, 0 nM Compound A1",89%
same,Percentage of the AnnexinV^+ cells from CLL patients,"Sample 3, 50 nM Compound B1, 0 nM Compound A1",97%
same,Percentage of the AnnexinV^+ cells from CLL patients,"Sample 3, 100 nM Compound B1, 0 nM Compound A1",99%
same,Percentage of the AnnexinV^+ cells from CLL patients,"Sample 3, 200 nM Compound B1, 0 nM Compound A1",100%
"c1cn2cc(-c3ccc4cn[nH]c4c3)nc(Nc3ccc(N4CCOCC4)cc3)c2n1 [Compound A1, 6-(1H-indazol-6-yl)-N-(4-morpholinophenyl)imidazo[1,2-a]pyrazin-8-amine]",Percentage of the AnnexinV^+ cells from CLL patients,"Sample 1, 0 nM Compound B1, 30 nM Compound A1",12%
same,Percentage of the AnnexinV^+ cells from CLL patients,"Sample 1, 0 nM Compound B1, 100 nM Compound A1",12%
same,Percentage of the AnnexinV^+ cells from CLL patients,"Sample 1, 0 nM Compound B1, 300 nM Compound A1",16%
same,Percentage of the AnnexinV^+ cells from CLL patients,"Sample 2, 0 nM Compound B1, 30 nM Compound A1",9%
same,Percentage of the AnnexinV^+ cells from CLL patients,"Sample 2, 0 nM Compound B1, 100 nM Compound A1",12%
same,Percentage of the AnnexinV^+ cells from CLL patients,"Sample 2, 0 nM Compound B1, 300 nM Compound A1",20%
same,Percentage of the AnnexinV^+ cells from CLL patients,"Sample 3, 0 nM Compound B1, 30 nM Compound A1",13%
same,Percentage of the AnnexinV^+ cells from CLL patients,"Sample 3, 0 nM Compound B1, 100 nM Compound A1",15%
same,Percentage of the AnnexinV^+ cells from CLL patients,"Sample 3, 0 nM Compound B1, 300 nM Compound A1",18%
